From patent US10258602B2 (Ocera Therapeutics, Inc., priority 2007, dated 2019)
Where two headings read alike, the source gives them in different places.

Columns and labels:
CYP2C19 = target: T1, CYP2C19 (Homo sapiens, UniProt P33261); assay: Cytochrome P450 inhibition, CYP2C19; type: in vitro ADME; settings: read-out: IC50 2C19
T1 construct: purchased BD Gentest, Becton-Dickinson (Supersomes); host or cells: insect cells
Excerpt: (§1) K. Assay for Cytochrome P450 Inhibition
(§2) Cytochrome P450 enzymes are implicated in the phase I metabolism of drugs. The majority of drug-drug interactions are metabolism-based and, moreover, these interactions typically involve inhibition of cytochrome P450s. Six CYP450 enzymes (CYP1A2, CYP2C8, CYP2C9, CYP2C19, CYP2D6 and CYP3A4) appear to be commonly responsible for the metabolism of most drugs and the associated drug-drug interactions. Assays to determine the binding of compounds of the invention to the various metabolically important isoforms of cytochrome P450 metabolizing enzymes are commercially available, for example NoAb BioDiscoveries (Mississaugua, ON, Canada) and Absorption Systems (Exton, Pa., USA). As well, a number of appropriate methods have been described or reviewed in the literature. (White, R. E. Ann. Rev. Pharmacol. Toxicol. 2000, 40, 133-157; Li, A. P. Drug. Disc. Today 2001, 6, 357-366; Turpeinen, M.; Korhonen, L. E. Tolonen, A.; et al. Eur. J. Pharm. Sci, 2006, 29, 130-138.)
(§3) The key aspects of the experimental method were as follows: • 1. […] Assays monitored, via fluorescence detection, the formation of a fluorescent metabolite following incubation of the microsomes with a specific CYP substrate. • 3. Compounds of the present invention were tested in duplicate samples at eight test concentrations using 3-fold serial dilutions (concentration range of 0.0457 to 100 μM). • 4. For each CYP-450 enzyme, a specific inhibitor was tested in duplicate at eight concentrations as a positive control. • 5. The concentration of the inhibitor or test compound that inhibited metabolite formation by 50% (IC50) was calculated by non-linear regression analysis of the % inhibition vs. log concentration (M) curve.

CYP2C8 = target: T2, CYP2C8 (Homo sapiens, UniProt P10632); assay: Cytochrome P450 inhibition, CYP2C8; type: in vitro ADME; settings: read-out: IC50 2C8
T2 construct: purchased BD Gentest, Becton-Dickinson (Supersomes); host or cells: insect cells
T2 sequence (P10632 1-490): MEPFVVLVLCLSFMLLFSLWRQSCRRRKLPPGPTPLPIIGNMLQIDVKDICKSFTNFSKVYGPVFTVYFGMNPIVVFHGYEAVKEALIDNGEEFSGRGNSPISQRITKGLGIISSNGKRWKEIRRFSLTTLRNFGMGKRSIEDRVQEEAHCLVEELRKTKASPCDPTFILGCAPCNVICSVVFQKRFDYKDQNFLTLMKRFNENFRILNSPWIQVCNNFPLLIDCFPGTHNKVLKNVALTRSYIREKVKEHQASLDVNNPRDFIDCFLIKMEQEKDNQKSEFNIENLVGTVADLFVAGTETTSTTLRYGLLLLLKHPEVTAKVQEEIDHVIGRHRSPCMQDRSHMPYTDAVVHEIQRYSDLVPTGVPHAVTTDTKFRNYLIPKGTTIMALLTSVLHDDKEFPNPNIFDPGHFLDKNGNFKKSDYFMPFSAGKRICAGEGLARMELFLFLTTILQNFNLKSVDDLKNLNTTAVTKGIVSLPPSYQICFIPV
Excerpt: as §1, §2, §3

[1] = target: human growth hormone secretagogue receptor (hGHS-R1a) (Homo sapiens, UniProt Q92847); assay: Competitive radioligand binding assay (ghrelin receptor), standard method A
Sequence of human growth hormone secretagogue receptor (hGHS-R1a) (Q92847 whole entry): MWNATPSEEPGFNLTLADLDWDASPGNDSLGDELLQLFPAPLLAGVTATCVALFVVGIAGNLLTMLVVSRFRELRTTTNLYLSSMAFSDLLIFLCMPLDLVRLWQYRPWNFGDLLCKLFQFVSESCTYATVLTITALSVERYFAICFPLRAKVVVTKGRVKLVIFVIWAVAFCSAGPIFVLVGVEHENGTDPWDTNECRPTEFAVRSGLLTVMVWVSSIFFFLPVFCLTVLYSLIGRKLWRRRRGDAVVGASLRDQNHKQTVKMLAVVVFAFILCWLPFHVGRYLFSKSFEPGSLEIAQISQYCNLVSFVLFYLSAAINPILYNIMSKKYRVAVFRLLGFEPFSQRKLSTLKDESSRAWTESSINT

fasted rats = assay: Gastric emptying in fasted rat model, standard method E; type: in vivo; settings: for Percent Increase in Gastric Emptying After Oral Administration: average where repeated
Method in brief: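 Overnight-fasted male Wistar rats (200 g, n=5/group) received a 2 mL 2% methylcellulose meal labelled with 0.05% phenol red by gavage, then oral test article (typically 1–30 mg/kg) at t=0. At 15 min, stomach phenol red was measured colorimetrically at 560 nm; ≥30% increase in emptying vs vehicle deemed significant (ANOVA/Dunnett).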

[2] = Pharmacokinetic analysis (oral bioavailability, elimination half-life) in the rat; type: in vivo; settings: oral administration, HPLC-MS
Method in brief: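 Rat, oral dosing at 8 mg/kg (one compound at 2 mg/kg). Plasma levels by HPLC-MS, giving oral bioavailability and elimination half-life.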

[3] = binding activity at the human ghrelin receptor, standard method A

T1 sequence (P33261 whole entry): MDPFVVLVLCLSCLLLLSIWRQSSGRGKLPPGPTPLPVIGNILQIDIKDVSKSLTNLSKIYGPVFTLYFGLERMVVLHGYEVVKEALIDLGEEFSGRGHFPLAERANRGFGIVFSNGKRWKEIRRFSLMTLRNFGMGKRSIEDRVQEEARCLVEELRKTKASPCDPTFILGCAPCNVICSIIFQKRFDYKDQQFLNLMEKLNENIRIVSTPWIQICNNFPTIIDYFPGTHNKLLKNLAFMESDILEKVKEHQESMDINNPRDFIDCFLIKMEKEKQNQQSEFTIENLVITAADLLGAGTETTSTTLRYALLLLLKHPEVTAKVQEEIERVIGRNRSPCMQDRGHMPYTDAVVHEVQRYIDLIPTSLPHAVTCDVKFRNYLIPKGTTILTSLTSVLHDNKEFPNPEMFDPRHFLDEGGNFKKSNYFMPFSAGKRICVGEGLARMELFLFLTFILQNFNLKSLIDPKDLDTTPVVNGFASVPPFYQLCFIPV

Row | SMILES | IC50 (CYP2C19) | IC50 (CYP2C8) | Ki [1] | half-life ([2]; plasma, 8 mg/kg dose, read-out: Elimination Half-life (t1/2, rat, min)) | Elimination Half-life (t1/2, rat, min) ([2]; 2 mg/kg dose (compound 822)) | Oral Bioavailability (rat, % F) ([2]; 2 mg/kg dose (compound 822)) | Ki [1, 3] | Percent Increase in Gastric Emptying After Oral Administration (fasted rats; dose 3 mg/kg) | Oral Bioavailability (rat, % F) ([2]; 8 mg/kg dose) | Percent Increase in Gastric Emptying After Oral Administration (fasted rats; dose 1 mg/kg) | Percent Increase in Gastric Emptying After Oral Administration (fasted rats; dose 10 mg/kg) | gastric emptying rates remained increased (fasted rats; oral, up to 24 h post-dose) | Elimination Half-life (t1/2, rat, min) ([2]; 8 mg/kg dose)
1 | C[C@@H]1C(=O)N[C@H](Cc2ccc(O)cc2)C(=O)NCCCc2ccc(F)cc2OCCN[C@@H](C2CC2)C(=O)N1C [Compound 809] | > 100 µM | > 100 µM |  |  |  |  | ≤ 0.1 µM | 5% |  |  |  |  | 
2 | CC1NC(C2CC2)C(=O)N(C)C(C)C(=O)NC(Cc2ccc(O)cc2)C(=O)NCCCc2ccccc2OC1C (stereo not drawn) [Compound 820] | > 100 µM | > 100 µM |  |  |  |  | ≤ 0.1 µM | 20% | 18 % F | 6% | 22% |  | 137 min
3 | C[C@@H]1C(=O)N[C@H](Cc2ccc(O)cc2)C(=O)NCCCc2cccc3c2O[C@H](CC3)CN[C@@H](C2CC2)C(=O)N1C [Compound 803] | > 100 µM | 54.6 µM |  |  |  |  | ≤ 0.1 µM |  | 9 % F |  |  |  | 151 min
4 | CC1CNC(C2CC2)C(=O)N(C)C(C)C(=O)NC(Cc2ccc(O)cc2)C(=O)NCCCC2CCCCC2O1 (mixture of isomers) [Compound 826] | > 100 µM | > 100 µM |  |  |  |  | ≤ 0.1 µM | 12% | 29 % F | 19% | 30% |  | 77 min
5 | CC(C)CC1NC(=O)C(C)N(C)C(=O)C(C2CC2)NCC(C)OC2CCCCC2CCCNC1=O (mixture of isomers) [Compound 825] | > 100 µM | > 100 µM |  |  |  |  | ≤ 0.01 µM |  | 37 % F |  |  |  | 101 min

Further lines, with some results ahead:

Row | IC50 (CYP2C19) | IC50 (CYP2C8) | Ki [1] | half-life ([2]; plasma, 8 mg/kg dose, read-out: Elimination Half-life (t1/2, rat, min)) | Elimination Half-life (t1/2, rat, min) ([2]; 2 mg/kg dose (compound 822)) | Oral Bioavailability (rat, % F) ([2]; 2 mg/kg dose (compound 822)) | SMILES | Ki [1, 3] | Percent Increase in Gastric Emptying After Oral Administration (fasted rats; dose 3 mg/kg) | Oral Bioavailability (rat, % F) ([2]; 8 mg/kg dose) | Percent Increase in Gastric Emptying After Oral Administration (fasted rats; dose 1 mg/kg) | Percent Increase in Gastric Emptying After Oral Administration (fasted rats; dose 10 mg/kg) | gastric emptying rates remained increased (fasted rats; oral, up to 24 h post-dose) | Elimination Half-life (t1/2, rat, min) ([2]; 8 mg/kg dose)
6 | > 100 µM | > 100 µM | ≤ 0.01 µM | 197 min |  |  | CC(C)C[C@H]1NC(=O)[C@@H](C)N(C)C(=O)[C@H](C2CC2)NC[C@@H](C)Oc2ccccc2CC[C@H](C)NC1=O [Compound 807] |  | 31% | 23 % F | 17% | 41% | 18-23% | 
7 | > 100 µM | > 100 µM |  |  |  |  | CC(C)C[C@H]1NC(=O)[C@@H](C)N(C)C(=O)[C@H](C2CC2)NCCOc2cc(F)ccc2CCCNC1=O [Compound 810] | ≤ 0.1 µM |  | 15 % F |  |  |  | 116 min
8 | > 100 µM | > 100 µM |  |  |  |  | CC(C)CC1NC(=O)C(C)N(C)C(=O)C(C2CCCCC2)NCC(C)OC2CCCCC2CCCNC1=O (mixture of isomers) [Compound 828] | ≤ 0.001 µM | 24% |  |  |  |  | 
9 | > 100 µM | > 100 µM |  |  | 65 min | 51 % F | CC(C)C[C@H]1NC(=O)[C@@H](C)N(C)C(=O)[C@H](C2CC2)NCCOc2cc(F)ccc2CC[C@H](C)NC1=O [Compound 822] | ≤ 0.1 µM | 6% |  |  |  |  | 
